Reference: patent US9433607B2, “Composition for prevention or treatment of cancer comprising N-methylenenaphtho[2,1-b]furan-2-carbohydrazide derivatives as an active ingredient” (KOREA RESEARCH INSTITUTE OF BIOSCIENCE AND BIOTECHNOLOGY, priority 2012, dated 2016)
pIC50: −log10 of the molar value.

What was measured:
U373MG = test: Anti-proliferative MTT assay, U373MG; assay type: cell-based; details: Homo sapiens, U373 MG, 96 h, Brain, 4 days
Method: (§1) Various cancer cell lines (rectal cancer, prostate cancer, breast cancer, lung cancer, stomach cancer, liver cancer, leukemia, brain cancer, and glioma cell lines) were cultured in microtiter plate (1-3×10^3 cells/well), to which ethyl(2-methyl-3{(E)-[(naphtho[2,1-b]furan-2-ylcarbonyl)hydrazono]methyl}-1H-indole-1-yl)acetate was treated. The culture continued for 4 days. Cytotoxicity was investigated by MTT assay by the same manner as described in Example <1-2>. IC50 was calculated by long-dose response curve. The data presents the mean value obtained from the assay performed in triplicate.

HL60 = test: Anti-proliferative MTT assay, HL60; assay type: cell-based; details: Homo sapiens, HL-60, 96 h, HL60, Blood, 4 days
Method: as §1

HT-29 = test: Anti-proliferative MTT assay, HT-29; assay type: cell-based; details: Homo sapiens, 96 h, HT-29, Large intestine, 4 days
Method: as §1

[1] = tested on: FVB/N mouse induced with skin tumor; test: DMBA/TPA induced skin tumor model; assay type: in vivo
Method: In this invention, the male FVB/N mice (6-7 weeks, Jackson Laboratory, USA) were raised under the condition of 12 hr bright lighting/12 hr dim lighting at the temperature of 24±2° C. with the humidity of 50±10% with water and feed provided freely. The care and process of the test animal was reviewed and approved by Institutional Animal Care and Use Committee (IACUC), Korea Research Institute of Bioscience and Biotechnology (KRIBB). DMBA (7,12-dimethylbenz[α]anthracene), TPA (12-O-tetradecanoylphorbol-13-acetate) and cholchicine were purchased from Sigma-Aldrich, and the synthesized ethyl(2-methyl-3{(E)-[(naphtho[2,1-b]furan-2-ylcarbonyl)hydrazono]methyl}-1H-indole-1-yl)acetate was provided from Dr. Thimmegowda.
Particularly, the dorsal skin of the said FVB/N mouse was shaved two days before the experiment. 100 μg of DMBA was added to 0.2 ml of acetone, which was treated to the mouse by single-local administration for 1 week to induce tumor. 5 fig of TPA was added to 0.2 ml of acetone, which was treated to the above mouse induced with tumor […] for 15 weeks to grow the tumor. 500 nM of ethyl(2-methyl-3{(E)-[(naphtho[2,1-b]furan-2-ylcarbonyl)hydrazono]methyl}-1H-indole-1-yl)acetate or cholchicine was dissolved in 0.2 ml of acetone, which was treated to the above mouse locally for 30 minutes each time for 15 weeks. Each group was composed of at least 10 mice and total 4 groups were prepared:
Group 1: DMBA and acetone treated group (negative control)
Group 2: DMBA and TPA treated group (positive control)
Group 3: DMBA/TPA and cholchicine treated group (experimental group 1)
Group 4: DMBA/TPA and ethyl(2-methyl-3{(E)-[(naphtho[2,1-b]furan-2-ylcarbonyl)hydrazono]methyl}-1H-indole-1-yl)acetate treated group (experimental group 2).
In addition, skin tumor such as papilloma was checked every week during the whole period of experiment. The tumor in the size of at least 2 mm was judged as positive. 15 weeks later, the mice were sacrificed with CO2. The skin tumor was extracted for histopathological/biochemical analysis.
The average number and the volume of tumor in each group were calculated.
Each mouse group was treated with different materials by the same manner as described in Example <8-2>, followed by observation for 15 weeks, and then the number of mice having skin tumor was counted. Tumor development rate was presented as %.
The mouse induced with skin tumor by the same manner as described in Example <8-2> was treated with DMBA, and then the induced tumors were observed and weighed for 15 weeks to produce the average weight of tumor.

caspase-3 and PARP = test: Immunoblotting of apoptosis related proteins; assay type: cell-based; details: HeLa cells
Method: Particularly, HeLa cells were treated with DMSO or ethyl(2-methyl-3{(E)-[(naphtho[2,1-b]furan-2-ylcarbonyl)hydrazono]methyl}-1H-indole-1-yl)acetate for 24 or 48 hours. Then, immunoblotting was performed to investigate the expressions of caspase-3 and PARP, the apoptosis related proteins. PARP (poly(ADP-ribose)polymerase) is one of the downstream cleavage proteins derived from caspase3. Immunoblotting was performed using caspase-3, PARP, and GAPDH specific antibodies.

HeLa cells = test: Immunofluorescence of intracellular microtubules and chromosomes; assay type: cell-based
Method: To investigate the effect of ethyl(2-methyl-3{(E)-[(naphtho[2,1-b]furan-2-ylcarbonyl)hydrazono]methyl}-1H-indole-1-yl)acetate on intracellular microtubules, HeLa cells were treated with DMSO, Taxol (100 μM), nocodazole (200 ng/ml), or ethyl(2-methyl-3{(E)-[(naphtho[2,1-b]furan-2-ylcarbonyl)hydrazono]methyl}-1H-indole-1-yl)acetate (5 μM) for 17 hours. After fixing the cells, the cells were immuno-stained with Alexa Fluor 488-conjugated anti-tubulin antibody and Hoechst 33342 to confirm α-tubulin and chromosomes.

**Q.** `CCOC(=O)Cn1c(C)c(/C=N/NC(=O)c2cc3c(ccc4ccccc43)o2)c2ccccc21` [STK899704] was tested. Which pIC50 (U373MG) did it give?
**A.** 6.29

**Q.** What about the pIC50 (HL60) of the same molecule?
**A.** 6.25

**Q.** What about the pIC50 (HT-29) of the same molecule?
**A.** 6.15

**Q.** And the “number of skin tumor” value ([1]; 500 nM in 0.2 ml acetone, local, 15 weeks)?
**A.** significantly reduced

**Q.** What about the “weight of tumor compared with positive control” value ([1]; 15 weeks) of the same molecule?
**A.** significantly lighter

**Q.** And the “average volume of skin tumor reduced compared with positive control” value ([1]; 15 weeks, 500 nM local)?
**A.** 20.3%

**Q.** What about the “decrease of average number of skin tumor compared with positive control” value ([1]; 15 weeks, 500 nM local) of the same molecule?
**A.** 4.75 times

**Q.** What about the “average weight of tumor as fraction of positive control” value ([1]; 15 weeks, experimental group 2) of the same molecule?
**A.** 1/10

**Q.** And the “week to which tumor formation was postponed” value ([1]; tumor of at least 2 mm, positive control from 8th week)?
**A.** 10 week

**Q.** And the PARP cleavage (caspase-3 and PARP; 48 hours)?
**A.** significantly increased

**Q.** And the caspase-3 cleavage (caspase-3 and PARP; 48 hours, 0.5 μM)?
**A.** significantly increased

**Q.** And the caspase-3 cleavage (caspase-3 and PARP; 48 hours, 1 and 5 μM)?
**A.** more significantly increased

**Q.** What about the caspase-3 cleavage (caspase-3 and PARP; within 24 hours) of the same molecule?
**A.** not observed

**Q.** And the “effect on microtubules (immunofluorescence over concentrations)” value (HeLa cells; 1 μM)?
**A.** all the microtubules were destroyed

**Q.** And the “effect on microtubules and chromosomes (immunostaining)” value (HeLa cells; 17 hours, Taxol 100 μM, nocodazole 200 ng/ml, compound 5 μM)?
**A.** chromosomes were not fully condensed and microtubules were destroyed
